Measurements published in ChEMBL document CHEMBL1137324, “Novel selective orally active CRTH2 antagonists for allergic inflammation developed from in silico derived hits” (J Med Chem, 2006).
Converted amounts (≈) assume the structure as drawn. The source made the active and inactive calls. The calls are words filed in the database; no cut-off is given here.

Legend:
[1] = molecular target: Nociceptin receptor (Homo sapiens) (UniProt P41146); experiment: Inhibition of human ORL1 at 10 uM
[2] = Permeability from basolateral to apical side of Caco-2 cells; format: ADME, cell-based; conditions: human, read-out: permeability
[3] = molecular target: Sodium-dependent serotonin transporter (Homo sapiens) (UniProt P31645); experiment: Inhibition of human 5-HT transporter at 10 uM
Mus musculus [4] = experiment: Inhibition of goblet cell hyperplasia in BALB/c mouse at 5 mg/kg, po relative to control; format: functional, organism-based; design: dose 5 mg/kg
[5] = molecular target: Type-2 angiotensin II receptor (Homo sapiens) (UniProt P50052); experiment: Inhibition of AT2
Chain of Type-2 angiotensin II receptor (Homo sapiens) (P50052 whole entry): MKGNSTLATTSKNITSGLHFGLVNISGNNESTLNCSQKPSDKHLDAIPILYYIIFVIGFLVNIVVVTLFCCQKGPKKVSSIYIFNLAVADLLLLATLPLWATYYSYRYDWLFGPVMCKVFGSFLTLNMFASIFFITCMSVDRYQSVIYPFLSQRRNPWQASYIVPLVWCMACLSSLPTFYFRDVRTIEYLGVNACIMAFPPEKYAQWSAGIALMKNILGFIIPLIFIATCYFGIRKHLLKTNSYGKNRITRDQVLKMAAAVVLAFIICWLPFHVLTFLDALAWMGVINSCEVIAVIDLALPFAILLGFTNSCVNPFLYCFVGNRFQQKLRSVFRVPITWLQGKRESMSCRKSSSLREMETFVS

[6] = Half life in rat; format: ADME, organism-based; conditions: in vivo
[7] = molecular target: Glutamate [NMDA] receptor (Homo sapiens) (UniProt Q05586+Q12879+Q13224+O15399+O60391+Q14957+Q8TCU5); experiment: Inhibition of human NMDA receptor at 10 uM; format: protein-complex assay
[8] = molecular target: Sigma non-opioid intracellular receptor 1 (Homo sapiens) (UniProt Q99720); experiment: Inhibition of sigma receptor at 10 uM
Chain of Sigma non-opioid intracellular receptor 1 (Homo sapiens) (Q99720 whole entry): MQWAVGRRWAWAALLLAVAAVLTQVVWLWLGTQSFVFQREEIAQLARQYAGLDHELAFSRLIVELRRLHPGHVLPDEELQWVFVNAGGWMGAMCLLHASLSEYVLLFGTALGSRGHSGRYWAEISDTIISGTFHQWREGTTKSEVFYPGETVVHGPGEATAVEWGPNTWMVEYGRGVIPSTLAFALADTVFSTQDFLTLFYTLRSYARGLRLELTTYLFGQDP

[9] = molecular target: Melanocortin receptor 4 (Homo sapiens) (UniProt P32245); experiment: Inhibition of human MC4 receptor at 10 uM
[10] = molecular target: Type-1 angiotensin II receptor (Homo sapiens) (UniProt P30556); experiment: Inhibition of human AT1 receptor at 10 uM
Chain of Type-1 angiotensin II receptor (Homo sapiens) (P30556 whole entry): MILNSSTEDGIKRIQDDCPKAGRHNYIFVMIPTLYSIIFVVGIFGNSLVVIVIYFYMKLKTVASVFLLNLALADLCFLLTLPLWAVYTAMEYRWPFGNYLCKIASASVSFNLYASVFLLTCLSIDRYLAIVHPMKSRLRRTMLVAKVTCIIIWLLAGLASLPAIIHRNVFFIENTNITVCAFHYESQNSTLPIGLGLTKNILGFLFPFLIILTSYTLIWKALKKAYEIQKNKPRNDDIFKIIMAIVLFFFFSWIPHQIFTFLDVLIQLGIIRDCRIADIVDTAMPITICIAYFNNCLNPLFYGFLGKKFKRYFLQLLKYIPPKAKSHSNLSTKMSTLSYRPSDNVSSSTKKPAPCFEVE

[11] = molecular target: Cysteinyl leukotriene receptor 1 (Homo sapiens) (UniProt Q9Y271); experiment: Inhibition of human LTD4 receptor at 10 uM
Mus musculus [12] = experiment: Inhibition of peribronchial eosinophilia in BALB/c mouse at 100 mg/kg, po relative to control; format: functional
[13] = molecular target: Histamine H2 receptor (Homo sapiens) (UniProt P25021); experiment: Inhibition of human H2 receptor at 10 uM
[14] = Aqueous solubility at pH 1; format: physicochemical; conditions: buffer
[15] = molecular target: Type-2 angiotensin II receptor (Homo sapiens) (UniProt P50052); experiment: Inhibition of human AT2 receptor at 10 uM
[16] = Permeability from apical to basolateral side of Caco-2 cells; format: ADME, cell-based; conditions: human, read-out: permeability
Homo sapiens = organism: Homo sapiens; experiment: Inhibition of human Y receptor at 10 uM
[17] = molecular target: Prostaglandin D2 receptor (Homo sapiens) (UniProt Q13258); experiment: Inhibition of human DP receptor at 10 uM
Chain of Prostaglandin D2 receptor (Homo sapiens) (Q13258 whole entry): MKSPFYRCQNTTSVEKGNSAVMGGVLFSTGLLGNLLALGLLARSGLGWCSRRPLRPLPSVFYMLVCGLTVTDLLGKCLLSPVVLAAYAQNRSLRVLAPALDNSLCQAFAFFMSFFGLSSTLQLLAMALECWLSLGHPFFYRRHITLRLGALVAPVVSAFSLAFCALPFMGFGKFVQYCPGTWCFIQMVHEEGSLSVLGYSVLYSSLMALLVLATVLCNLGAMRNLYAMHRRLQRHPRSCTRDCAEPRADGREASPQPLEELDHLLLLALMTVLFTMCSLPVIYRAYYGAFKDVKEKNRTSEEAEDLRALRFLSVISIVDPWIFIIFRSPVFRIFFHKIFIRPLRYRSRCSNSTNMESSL

[18] = molecular target: Substance-P receptor (Homo sapiens) (UniProt P25103); experiment: Inhibition of human NK1 receptor at 10 uM
Chain of Substance-P receptor (Homo sapiens) (P25103 whole entry): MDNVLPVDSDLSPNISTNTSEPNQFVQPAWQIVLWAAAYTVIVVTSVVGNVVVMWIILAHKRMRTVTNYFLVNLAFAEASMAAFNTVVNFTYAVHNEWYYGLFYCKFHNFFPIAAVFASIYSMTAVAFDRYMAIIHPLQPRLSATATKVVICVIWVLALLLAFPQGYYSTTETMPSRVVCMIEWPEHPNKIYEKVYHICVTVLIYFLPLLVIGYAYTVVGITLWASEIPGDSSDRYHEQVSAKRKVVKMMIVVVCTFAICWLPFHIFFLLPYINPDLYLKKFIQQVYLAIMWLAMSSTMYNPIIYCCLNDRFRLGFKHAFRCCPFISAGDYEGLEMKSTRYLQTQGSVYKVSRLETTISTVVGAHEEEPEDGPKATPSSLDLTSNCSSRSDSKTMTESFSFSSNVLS

[19] = molecular target: Prostaglandin D2 receptor 2 (Mus musculus, UniProt Q9Z2J6); experiment: Inhibition of mouse CRTH2 receptor
[20] = molecular target: Opioid receptors; mu/kappa/delta (Homo sapiens) (UniProt P41145+P41143+P35372); experiment: Inhibition of opiate receptor at 10 uM; format: protein assay
[21] = molecular target: Histamine H1 receptor (Homo sapiens) (UniProt P35367); experiment: Inhibition of human H1 receptor at 10 uM
[22] = Aqueous solubility in PBS at pH 7.4; format: physicochemical
[23] = molecular target: Phospholipase A2 (Homo sapiens) (UniProt P04054); experiment: Inhibition of PLA2 at 10 uM
[24] = molecular target: Somatostatin receptor (Homo sapiens) (UniProt P35346+P30874+P31391+P30872+P32745); experiment: Inhibition of sst receptor at 10 uM; format: protein assay
Rattus norvegicus = organism: Rattus norvegicus; experiment: Stability in rat liver S9 fraction; format: ADME
Mus musculus [25] = experiment: Inhibition of peribronchial eosinophilia in BALB/c mouse at 5 mg/kg, po relative to control; format: functional, organism-based; design: dose 5 mg/kg
[26] = molecular target: T1, Prostaglandin D2 receptor 2 (Homo sapiens, UniProt Q9Y5Y4); experiment: Displacement of [3H]PGD2 from human CRTH2 receptor expressed in HEK293 cells; format: cell-based
T1 sequence (Q9Y5Y4 whole entry): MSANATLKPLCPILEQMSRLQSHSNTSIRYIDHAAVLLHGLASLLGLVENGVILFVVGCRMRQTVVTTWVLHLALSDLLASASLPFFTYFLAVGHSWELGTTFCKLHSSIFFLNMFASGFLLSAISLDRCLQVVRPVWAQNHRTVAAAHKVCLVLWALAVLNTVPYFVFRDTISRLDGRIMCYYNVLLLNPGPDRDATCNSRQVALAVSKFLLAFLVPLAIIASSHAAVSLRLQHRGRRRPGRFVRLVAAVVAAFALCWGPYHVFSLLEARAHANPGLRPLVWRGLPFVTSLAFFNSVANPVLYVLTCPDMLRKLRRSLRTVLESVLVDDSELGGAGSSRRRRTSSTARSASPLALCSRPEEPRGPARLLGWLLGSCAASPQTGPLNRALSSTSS

[27] = Distribution coefficient, log D at pH 7.4; format: physicochemical; conditions: octanol/water
[28] = molecular target: Serotonin (5-HT) receptor (Homo sapiens) (UniProt P30939+P41595+Q13639+P28222+P46098+P08908+P28221+P28223+P28335+P28566+P34969+P50406+P47898+A5X5Y0+O95264+Q70Z44+Q8WXA8); experiment: Inhibition of 5-HT receptor at 10 uM; format: protein assay
[29] = molecular target: fMet-Leu-Phe receptor (Homo sapiens) (UniProt P21462); experiment: Inhibition of human fMLP receptor at 10 uM
[30] = molecular target: Gastric inhibitory polypeptide receptor (Homo sapiens) (UniProt P48546); experiment: Inhibition of GIP receptor at 10 uM
Chain of Gastric inhibitory polypeptide receptor (Homo sapiens) (P48546 whole entry): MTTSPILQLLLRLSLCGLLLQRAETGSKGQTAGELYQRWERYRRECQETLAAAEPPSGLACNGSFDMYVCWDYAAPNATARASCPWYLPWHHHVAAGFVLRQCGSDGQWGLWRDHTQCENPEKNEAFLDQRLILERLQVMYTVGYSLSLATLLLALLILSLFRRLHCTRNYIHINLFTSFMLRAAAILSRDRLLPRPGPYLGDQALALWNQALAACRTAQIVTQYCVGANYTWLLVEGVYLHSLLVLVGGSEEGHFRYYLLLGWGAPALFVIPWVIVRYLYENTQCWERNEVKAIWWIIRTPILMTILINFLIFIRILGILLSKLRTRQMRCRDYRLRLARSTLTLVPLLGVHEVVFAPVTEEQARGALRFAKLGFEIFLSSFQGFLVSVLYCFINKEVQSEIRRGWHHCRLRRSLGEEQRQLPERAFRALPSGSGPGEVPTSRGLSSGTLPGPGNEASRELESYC

[31] = molecular target: Melanin-concentrating hormone receptor 1 (Homo sapiens) (UniProt Q99705); experiment: Inhibition of human MCH1 receptor at 10 uM
[32] = molecular target: Sodium-dependent dopamine transporter (Homo sapiens) (UniProt Q01959); experiment: Inhibition of human DA transporter at 10 uM
[33] = molecular target: Type-1 angiotensin II receptor (Homo sapiens) (UniProt P30556); experiment: Inhibition of AT1
[34] = molecular target: Prostaglandin G/H synthase 1 (Homo sapiens) (UniProt P23219); experiment: Inhibition of COX1 at 10 uM
Chain of Prostaglandin G/H synthase 1 (Homo sapiens) (P23219 whole entry): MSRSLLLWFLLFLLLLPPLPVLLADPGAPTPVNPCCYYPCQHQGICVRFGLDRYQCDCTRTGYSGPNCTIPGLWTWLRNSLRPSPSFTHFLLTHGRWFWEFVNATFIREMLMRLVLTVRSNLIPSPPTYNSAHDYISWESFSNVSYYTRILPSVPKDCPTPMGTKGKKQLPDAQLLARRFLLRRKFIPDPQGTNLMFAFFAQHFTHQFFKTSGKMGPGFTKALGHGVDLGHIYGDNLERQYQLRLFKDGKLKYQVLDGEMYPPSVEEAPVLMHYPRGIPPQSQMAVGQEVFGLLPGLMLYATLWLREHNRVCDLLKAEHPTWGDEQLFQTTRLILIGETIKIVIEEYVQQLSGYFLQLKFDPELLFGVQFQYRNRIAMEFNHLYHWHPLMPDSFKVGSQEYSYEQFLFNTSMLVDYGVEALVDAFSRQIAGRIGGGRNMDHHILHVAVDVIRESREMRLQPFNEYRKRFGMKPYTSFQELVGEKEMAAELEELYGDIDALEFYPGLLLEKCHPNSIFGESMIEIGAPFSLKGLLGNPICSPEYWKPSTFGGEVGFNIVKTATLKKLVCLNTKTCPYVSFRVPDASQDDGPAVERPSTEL

[35] = molecular target: Prostaglandin G/H synthase 2 (Homo sapiens) (UniProt P35354); experiment: Inhibition of COX2 at 10 uM
Chain of Prostaglandin G/H synthase 2 (Homo sapiens) (P35354 whole entry): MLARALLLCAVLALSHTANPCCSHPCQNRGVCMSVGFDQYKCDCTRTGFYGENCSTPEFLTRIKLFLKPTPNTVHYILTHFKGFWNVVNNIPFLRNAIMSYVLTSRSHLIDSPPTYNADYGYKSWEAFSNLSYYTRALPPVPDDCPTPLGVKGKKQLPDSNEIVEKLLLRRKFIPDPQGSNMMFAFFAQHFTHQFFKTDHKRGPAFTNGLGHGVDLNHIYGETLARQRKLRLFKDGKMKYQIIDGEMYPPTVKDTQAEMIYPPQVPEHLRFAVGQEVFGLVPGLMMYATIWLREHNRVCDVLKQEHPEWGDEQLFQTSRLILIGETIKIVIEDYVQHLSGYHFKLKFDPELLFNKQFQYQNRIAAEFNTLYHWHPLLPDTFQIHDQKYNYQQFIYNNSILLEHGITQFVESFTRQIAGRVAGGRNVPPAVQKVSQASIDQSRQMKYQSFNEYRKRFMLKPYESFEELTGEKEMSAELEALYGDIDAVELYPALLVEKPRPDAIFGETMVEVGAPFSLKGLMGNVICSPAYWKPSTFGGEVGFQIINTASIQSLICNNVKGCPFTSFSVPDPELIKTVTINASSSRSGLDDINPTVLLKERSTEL

[36] = molecular target: Adenosine receptor A1 (Homo sapiens) (UniProt P30542); experiment: Inhibition of human A1 receptor at 10 uM
Chain of Adenosine receptor A1 (Homo sapiens) (P30542 whole entry): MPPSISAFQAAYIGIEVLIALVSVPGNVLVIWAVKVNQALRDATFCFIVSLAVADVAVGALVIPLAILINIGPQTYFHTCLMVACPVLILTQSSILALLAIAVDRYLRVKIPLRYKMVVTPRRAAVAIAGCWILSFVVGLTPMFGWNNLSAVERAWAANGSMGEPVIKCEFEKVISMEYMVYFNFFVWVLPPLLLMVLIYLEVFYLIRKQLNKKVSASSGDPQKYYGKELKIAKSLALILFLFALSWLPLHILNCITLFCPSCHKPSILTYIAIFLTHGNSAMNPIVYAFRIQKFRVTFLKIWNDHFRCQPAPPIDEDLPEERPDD

[37] = molecular target: Endothelin-1 receptor (Homo sapiens) (UniProt P25101); experiment: Inhibition of human ETA receptor at 10 uM
Chain of Endothelin-1 receptor (Homo sapiens) (P25101 whole entry): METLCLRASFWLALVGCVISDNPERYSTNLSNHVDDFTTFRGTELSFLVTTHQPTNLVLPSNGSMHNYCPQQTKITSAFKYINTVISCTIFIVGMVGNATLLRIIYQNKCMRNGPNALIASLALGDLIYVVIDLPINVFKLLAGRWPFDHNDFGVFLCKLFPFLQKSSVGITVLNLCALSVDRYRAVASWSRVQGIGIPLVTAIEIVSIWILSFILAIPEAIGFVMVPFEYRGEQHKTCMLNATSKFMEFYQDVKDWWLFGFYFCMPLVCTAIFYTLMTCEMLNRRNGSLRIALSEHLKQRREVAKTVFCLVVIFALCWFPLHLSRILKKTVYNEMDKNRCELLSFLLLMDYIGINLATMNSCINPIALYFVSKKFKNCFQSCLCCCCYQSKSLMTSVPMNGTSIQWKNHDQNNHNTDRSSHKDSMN

[38] = molecular target: Adrenergic receptor alpha-1 (Homo sapiens) (UniProt P35348+P25100+P35368); experiment: Inhibition of alpha1 receptor at 10 uM; format: protein assay
[39] = molecular target: D(2) dopamine receptor (Homo sapiens) (UniProt P14416); experiment: Inhibition of human D2S receptor at 10 uM
[40] = molecular target: B2 bradykinin receptor (Homo sapiens) (UniProt P30411); experiment: Inhibition of human B2 receptor at 10 uM
Chain of B2 bradykinin receptor (Homo sapiens) (P30411 whole entry): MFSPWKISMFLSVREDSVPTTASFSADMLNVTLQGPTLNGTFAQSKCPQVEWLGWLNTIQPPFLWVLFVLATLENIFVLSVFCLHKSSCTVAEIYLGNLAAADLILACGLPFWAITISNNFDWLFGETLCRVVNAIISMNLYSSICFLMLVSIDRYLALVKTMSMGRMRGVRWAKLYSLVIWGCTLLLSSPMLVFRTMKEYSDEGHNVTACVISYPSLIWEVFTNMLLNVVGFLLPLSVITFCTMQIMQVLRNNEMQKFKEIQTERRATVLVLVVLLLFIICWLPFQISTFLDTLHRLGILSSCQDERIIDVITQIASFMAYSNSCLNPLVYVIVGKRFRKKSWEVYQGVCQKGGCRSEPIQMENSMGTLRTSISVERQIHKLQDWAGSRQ

Mus musculus [41] = experiment: Inhibition of peribronchial eosinophilia in BALB/c mouse at 30 mg/kg, po relative to control; format: functional
[42] = molecular target: T1, Prostaglandin D2 receptor 2; experiment: Antagonist activity against CRTH2 receptor measured as inhibition of PGD2-induced beta-arrestin translocation in HEK293 cells by BRET assay; format: functional, cell-based
[43] = molecular target: Thromboxane A2 receptor (Homo sapiens) (UniProt P21731); experiment: Inhibition of human TXA2 receptor at 10 uM

Chain of Nociceptin receptor (Homo sapiens) (P41146 whole entry): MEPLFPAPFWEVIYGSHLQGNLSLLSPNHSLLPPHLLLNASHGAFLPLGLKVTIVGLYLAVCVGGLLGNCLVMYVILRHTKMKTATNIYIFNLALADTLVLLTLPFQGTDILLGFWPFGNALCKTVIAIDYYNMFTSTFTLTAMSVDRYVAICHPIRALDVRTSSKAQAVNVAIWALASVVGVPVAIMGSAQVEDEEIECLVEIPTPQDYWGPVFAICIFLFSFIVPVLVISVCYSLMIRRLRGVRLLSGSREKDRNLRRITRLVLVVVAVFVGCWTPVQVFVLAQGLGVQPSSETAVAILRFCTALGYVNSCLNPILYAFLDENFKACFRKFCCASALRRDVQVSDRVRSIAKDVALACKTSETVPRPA

## O=C(O)COc1ccc(Br)cc1C(=O)c1cnn(-c2ccccc2)c1
[1]
  inhibition: < 30%
[2]
  Papp B→A: 13 ×10⁻⁶ cm/s
[3]
  inhibition: < 30%
Mus musculus [4]
  Activity: Active
[5]
  Activity: inactive
[6]
  half-life: 2.7 h
[7]
  inhibition: < 30%
[8]
  inhibition: < 30%
[9]
  inhibition: < 30%
[10]
  inhibition: < 30%
[11]
  inhibition: < 30%
Mus musculus [12]
  inhibition in vivo at 100 mg/kg: 55%
[13]
  inhibition: < 30%
[14]
  solubility: 80 µM (≈ 32.1 µg/mL)
[15]
  inhibition: < 30%
[16]
  Papp A→B: 8.7 ×10⁻⁶ cm/s
Homo sapiens
  inhibition: < 30%
[17]
  inhibition: < 30%
[18]
  inhibition: < 30%
[19]
  IC50: 3.2 nM
[20]
  inhibition: < 30%
[21]
  inhibition: < 30%
[22]
  solubility: 200 µM (≈ 80.2 µg/mL)
[23]
  inhibition: < 20%
[24]
  inhibition: < 30%
Rattus norvegicus
  Stability: 92%
Mus musculus [25]
  Activity: Active
[26]
  IC50: 1.5 nM
[27]
  logD: 0.64
[28]
  inhibition: < 30%
[29]
  inhibition: < 30%
[30]
  inhibition: < 30%
[31]
  inhibition: < 30%
[32]
  inhibition: < 30%
[33]
  Activity: inactive
[34]
  inhibition: < 20%
[35]
  inhibition: < 20%
[36]
  inhibition: < 30%
[37]
  inhibition: < 30%
[38]
  inhibition: < 30%
[39]
  inhibition: < 30%
[40]
  inhibition: < 30%
Mus musculus [41]
  inhibition in vivo at 30 mg/kg: 62%
[42]
  IC50: 24 nM
[43]
  inhibition: < 30%
